This note sets out measurements from US20250000855A1, “USE OF APOMORPHINE AS THERAPEUTIC AGENT FOR NECROPTOSIS-RELATED DISEASES” (INDUSTRY-ACADEMIC COOPERATION FOUNDATION, YONSEI UNIVERSITY, priority 2021, published 2025).

For test [1], the system named is MLKL phosphorylation. The test can be described thus: Western blotting for MLKL phosphorylation in TBZ+APO-treated cells. Format: cell-based, human. The note with it: TBZ+APO-treated THP-1 cells, FIG. 1B. The protocol:
Cells were pretreated with Z-VAD (invivoGen, tlrl-vad) and a compound for 1 hour, and necroptosis was induced with TNF-α (ATGen, TNF0501) and BV6 (Biovision, B1332-5) for the indicated time. The prepared cells were appropriately treated according to analysis (Z-VAD: carbobenzoxy-valyl-alanyl-aspartyl, TNF-α: tumor necrosis factor-α, BV6: 4,4′-(1,6-hexanediyl)bis[N-methyl-L-alanyl-(2S)-2-cyclohexylglycyl-L-prolyl-β-phenyl-L-phenylalaninamide)
Cells were treated with a drug candidate and then collected using centrifugation at 4° C. and 1,500×g for 5 minutes. A supernatant was centrifuged again at 4° C. and 1,500×g for 5 minutes to remove remaining debris, concentrated at 4° C. and 14,000×g for 30 minutes using Amicon ultra-0.5 centrifugal filter unit 10K (Millipore, UFC501096), and stored. The collected cells were lysed using 1× radioimmunoprecipitation assay (RIPA) buffer (GenDEPOT, R4100-010) containing a 1× protease inhibitor (GenDEPOT, P3100-001) and a phosphatase inhibitor (Thermo Fisher Scientific, 1862495). Subsequently, the cell lysate was centrifuged at 4° C. and 20,000×g for 30 minutes to remove debris. The extracted protein concentration was measured using a bicinchoninic acid (BCA) protein assay kit (Thermo Fisher Scientific, 23225). […]

Test [2] deals with T1, MLKL N-term domain (amino acids 1-154) (Homo sapiens, UniProt Q8NB16).
T1 construct: MLKL N-term (amino acids 1-154) protein that had been purified in a laboratory; made in house
T1 sequence (Q8NB16 1-154): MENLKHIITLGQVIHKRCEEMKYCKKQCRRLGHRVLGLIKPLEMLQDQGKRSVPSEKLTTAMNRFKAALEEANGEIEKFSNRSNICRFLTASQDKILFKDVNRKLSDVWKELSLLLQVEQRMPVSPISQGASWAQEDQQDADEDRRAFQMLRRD
Nature of the test: Surface plasmon resonance (SPR) analysis, binding to MLKL N-term domain. The note with it: MLKL N-term domain immobilized on CM5 chip, Biacore T200, 25° C., 10 mM HEPES pH 7.4. On the procedure:
The interaction between MLKL and apomorphine (=APO) was detected through surface plasmon resonance (SPR) analysis using Biacore T200 (GE Healthcare). For pH scouting, a buffer consisting of 10 mM sodium acetate (pH 4.0 to 6.0) was used. MLKL protein (Abcam, ab241453), and MLKL N-term (amino acids 1-154) protein that had been purified in a laboratory were immobilized on the surface of a sensor chip CM5 (GE Healthcare) under scouted buffer conditions. To deduce an Rligand value, a coupling process was performed based on the molecular weights of MLKL, MLKL N-term domain (MW ligand), and APO (MW analyte). Oxidized (24 hr, RT incubation) and reduced (+DTT(DL-dithiothreitol)) forms of APO were injected into a running buffer (flow rate: 10 μl/min) consisting of 10 mM HEPES (pH 7.4) at 25° C. A sensorgram was recorded and analyzed in real time using control software provided by the Biacore T200 system itself. Six or more concentrations of APO were used in combination, and each KD value was derived. All run data was calculated using BIAevaluation Software (GE Healthcare).
SPR analysis was used to analyze the interaction pattern between APO and the MLKL protein (Experimental Method 1-10). […] Here, the analysis was performed by binding MLKL and the MLKL N-term domain protein immobilized on a CM5 chip with APO having six concentrations.
On the technique in general: SPR reads the build-up and loss of mass on a sensor chip optically.

Each structure is given as a SMILES string.

Regarding `CN1CCc2cccc3c2[C@H]1Cc1ccc(O)c(O)c1-3` [APO, apomorphine], the MLKL phosphorylation entry in test [1] is “did not inhibit”. For the same molecule, the Kd (commonly the constant that tells how readily two partners part at equilibrium) in test [2] was 62.5 nM.
